Test results published in article PMC8452690, “Structural basis for small molecule targeting of Doublecortin Like Kinase 1 with DCLK1-IN-1” (Communications Biology, 2021).
Several values for one entry are separate records, joined by “and”; a condition that tells them apart may be missing. Equal values may be shown once.

Columns and labels:
DCLK1-FL1Δ D511N = target: T1, DCLK1-FL1Δ D511N (Homo sapiens, UniProt O15075, D511N); assay: Thermal shift stability assay, DCLK1-FL1Δ D511N; format: binding; conditions: D511N mutant, 2.5-40 μM
T1 construct: DCLK1-FL1Δ (residues 50-686); 8XHis tag with TEV protease cleavage site (N); made in house; host or cells: Escherichia coli C41(DE3)
Procedure: DCLK1 proteins were diluted in 150 mM NaCl, 20 mM Tris pH 8.0, 1 mM DTT to […] final concentration and assayed with the appropriate concentration of inhibitor in a total reaction volume of 25 μL. SYPRO Orange (Molecular Probes) was used as a fluorescence probe and detected at 530 nm. The data shown are representative of two independent experiments.

[1] = target: T2, DCLK1-FL1Δ WT tubulin polymerisation activity (Homo sapiens, UniProt O15075); assay: Tubulin polymerisation and pelleting assay with DCLK1-FL1Δ WT; format: biochemical; conditions: 20 and 40 μM (Supplementary Fig. 10c)
T2 construct: DCLK1-FL1Δ (residues 50-686); 8XHis tag with TEV protease cleavage site (N); made in house; host or cells: Escherichia coli C41(DE3)
T2 sequence (O15075 50-686 isoform O15075-2): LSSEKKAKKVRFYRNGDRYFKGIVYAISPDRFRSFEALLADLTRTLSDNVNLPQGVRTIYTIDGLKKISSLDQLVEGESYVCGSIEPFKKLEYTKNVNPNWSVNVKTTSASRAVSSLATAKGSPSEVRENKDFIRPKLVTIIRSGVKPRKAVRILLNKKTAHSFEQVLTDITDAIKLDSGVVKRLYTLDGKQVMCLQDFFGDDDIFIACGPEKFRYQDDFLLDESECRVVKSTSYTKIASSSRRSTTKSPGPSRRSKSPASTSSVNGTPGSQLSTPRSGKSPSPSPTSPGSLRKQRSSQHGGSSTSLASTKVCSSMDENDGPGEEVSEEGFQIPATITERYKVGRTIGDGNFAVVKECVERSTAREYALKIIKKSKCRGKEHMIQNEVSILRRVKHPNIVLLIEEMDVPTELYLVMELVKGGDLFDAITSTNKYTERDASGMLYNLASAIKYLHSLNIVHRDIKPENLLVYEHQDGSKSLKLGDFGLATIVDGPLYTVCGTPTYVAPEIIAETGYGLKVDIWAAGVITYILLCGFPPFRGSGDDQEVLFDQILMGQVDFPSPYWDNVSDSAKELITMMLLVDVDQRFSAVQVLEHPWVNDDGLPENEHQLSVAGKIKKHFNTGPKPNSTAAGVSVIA
Procedure: Tubulin polymerisation assays were performed in buffer containing 80 mM PIPES at pH 6.9, 2.0 mM MgCl2, 0.5 mM EGTA, 2.5 mM β,γ-Methyleneguanosine 5’-triphosphate, and 10 μM tubulin and 5 μM DCLK1 for 1 h at 37 °C. For tubulin polymerisation in the presence of inhibitors, various concentrations of the inhibitors were first incubated with DCLK1 and allowed to stand on ice for 5 min before adding this mix to the tubulin polymerisation reaction. Following the tubulin polymerisation, the reaction mix was pelleted at 20,000 g for 20 min and the supernatant and the pellet fractions were run on a 12% SDS gel. The data shown are representative of two independent experiments.

DCLK1-KD = target: DCLK1-KD; parameters: method as in PMID 32251410; conditions: read-out: KD by ITC; cited from earlier work

T1 sequence (O15075 50-686 D511N): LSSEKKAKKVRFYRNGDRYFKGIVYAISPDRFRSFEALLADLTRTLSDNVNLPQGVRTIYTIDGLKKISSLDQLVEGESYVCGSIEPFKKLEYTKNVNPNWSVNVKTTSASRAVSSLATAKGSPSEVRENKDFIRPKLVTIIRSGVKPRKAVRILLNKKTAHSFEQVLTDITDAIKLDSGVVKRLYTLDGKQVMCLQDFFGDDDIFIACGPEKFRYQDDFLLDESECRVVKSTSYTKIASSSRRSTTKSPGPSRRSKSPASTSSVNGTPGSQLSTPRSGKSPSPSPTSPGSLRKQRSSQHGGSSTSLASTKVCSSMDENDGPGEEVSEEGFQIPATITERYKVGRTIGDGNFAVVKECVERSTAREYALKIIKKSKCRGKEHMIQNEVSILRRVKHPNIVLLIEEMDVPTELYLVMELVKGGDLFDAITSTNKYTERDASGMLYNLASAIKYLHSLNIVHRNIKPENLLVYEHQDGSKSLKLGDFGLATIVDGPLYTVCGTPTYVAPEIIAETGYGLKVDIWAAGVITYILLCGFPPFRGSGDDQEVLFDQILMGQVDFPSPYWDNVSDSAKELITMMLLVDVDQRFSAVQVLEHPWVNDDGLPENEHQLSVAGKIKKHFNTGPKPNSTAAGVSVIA

Structure (SMILES): COc1cc(N2CCN(C)CC2)ccc1Nc1ncc2c(n1)N(C)c1ccccc1C(=O)N2CC(F)(F)F [DCLK1-IN-1]
- melting temperature change versus control compound DCLK1-NEG (DCLK1-FL1Δ D511N): increased
- restoration of DCLK1-FL1Δ WT tubulin polymerisation activity [1]: did not restore
- Kd (DCLK1-KD): 0.055 µM and 0.109 µM
